{"source": "the NIST ThermoML archive (doi:10.1016/j.fluid.2017.05.024)", "key": {"[1]": {"assay": "xn = mol fraction of the nth substance listed", "settings": "298.15 K, 100 kPa, Liquid, Vibrating tube method"}, "[2]": {"settings": "298.15 K, Liquid"}}, "note": "Numbers after ± are expanded uncertainties."}
{"molecule": "CCCC[N+](CCCC)(CCCC)CCCC.[Br-]", "note": "[tetrabutylammonium bromide] + OCC(O)CO", "values": [{"measurement": "mass density", "setting": "[1]; x1 = 0.2", "value": "1137.1 ± 1.3", "unit": "kg/m3"}]}
{"molecule": "OCC(O)CO", "note": "[glycerol]", "values": [{"measurement": "mass density", "setting": "[2]; 101.33 kPa, Pycnometric method", "value": "1262 ± 2", "unit": "kg/m3"}]}
{"molecule": "OCCO", "note": "[1,2-ethanediol] + CCCC[N+](CCCC)(CCCC)CCCC.[Br-]", "values": [{"measurement": "mass density", "setting": "[1]; x2 = 0", "value": "1112.1 ± 1.4", "unit": "kg/m3"}]}
{"molecule": "CCCC[N+](CCCC)(CCCC)CCCC.[Br-]", "note": "[tetrabutylammonium bromide] + OCCO", "values": [{"measurement": "mass density", "setting": "[1]; x1 = 0.2", "value": "1069.1 ± 1.2", "unit": "kg/m3"}]}
{"molecule": "OCCO", "note": "[1,2-ethanediol]", "values": [{"measurement": "mass density", "setting": "[2]; 100 kPa, Vibrating tube method", "value": "1112.1 ± 1.4", "unit": "kg/m3"}]}
{"molecule": "c1c[nH]cn1", "note": "[1H-imidazole] + CCCC[N+](CCCC)(CCCC)CCCC.[Br-]", "values": [{"measurement": "mass density", "setting": "[1]; x2 = 0.333", "value": "1092.2 ± 1", "unit": "kg/m3"}]}
